Experimental data from PMC10520499, “Next step in the development of mesoprogestins: the preclinical profile of EC313” (Frontiers in Endocrinology, 2023).

How the values were obtained:
[1] = tested on: human progesterone receptor (full length, PRA); experiment: Competitive binding, full length human progesterone receptor; conditions: compared to progesterone
Protocol: (§1) The study aimed to characterize the competitive binding profile of EC313 to relevant human nuclear receptors. For the assays, commercially available ‘ligand binding domain’ proteins were purchased (Thermo Fisher Scientific). In addition, the full-length receptor proteins were expressed in transfected HI insect cells using the `Bac-to-bac Baculovirus expression system´ (Thermo Fisher Scientific). Cellular lysates served as receptor preparation. Receptor protein preparations were incubated with tritiated reference ligands and EC313 or reference steroids at concentrations between 0.1 and 1000 nM for 2h at 4°C to reach equilibrium. Subsequently, unbound steroids were adsorbed to dextran-coated charcoal (Sigma Aldrich), separated by filtration, and the remaining radioactivity was quantified in a ß-counter (Perkin Elmer). Displacement curves were fitted using the GraphPad Prism 7 free version to obtain EC50 values. Relative binding affinity (RBA [%], (C50ref/C50test)*100) and the competition coefficient (C50test/C50ref) were used to describe the relative binding potency of EC313 compared to the reference ligands.

[2] = biological target: T1, human estrogen receptor β (Homo sapiens, UniProt Q92731); experiment: Competitive binding, human estrogen receptor β; conditions: ERβ, full length
T1 construct: coding for the full length human estrogen receptors α and β, respectively, were obtained from GenScript; made in house; host or cells: HI (Hi5) insect cells, baculovirus; cellular lysate
Protocol: as §1
There are two subtypes of estrogen receptors (ER), ERα and ERβ, coded in different genes. Plasmids pFastBac1-ERa and pFastBac1-ERb, coding for the full length human estrogen receptors α and β, respectively, were obtained from GenScript. […]

human androgen receptor = biological target: T2, human androgen receptor (Homo sapiens, UniProt P10275); experiment: AR transactivation (CHO, MMTV-LUC); format: cell-based
T2 construct: host or cells: CHO, transient co-transfection
T2 sequence (P10275 1-920): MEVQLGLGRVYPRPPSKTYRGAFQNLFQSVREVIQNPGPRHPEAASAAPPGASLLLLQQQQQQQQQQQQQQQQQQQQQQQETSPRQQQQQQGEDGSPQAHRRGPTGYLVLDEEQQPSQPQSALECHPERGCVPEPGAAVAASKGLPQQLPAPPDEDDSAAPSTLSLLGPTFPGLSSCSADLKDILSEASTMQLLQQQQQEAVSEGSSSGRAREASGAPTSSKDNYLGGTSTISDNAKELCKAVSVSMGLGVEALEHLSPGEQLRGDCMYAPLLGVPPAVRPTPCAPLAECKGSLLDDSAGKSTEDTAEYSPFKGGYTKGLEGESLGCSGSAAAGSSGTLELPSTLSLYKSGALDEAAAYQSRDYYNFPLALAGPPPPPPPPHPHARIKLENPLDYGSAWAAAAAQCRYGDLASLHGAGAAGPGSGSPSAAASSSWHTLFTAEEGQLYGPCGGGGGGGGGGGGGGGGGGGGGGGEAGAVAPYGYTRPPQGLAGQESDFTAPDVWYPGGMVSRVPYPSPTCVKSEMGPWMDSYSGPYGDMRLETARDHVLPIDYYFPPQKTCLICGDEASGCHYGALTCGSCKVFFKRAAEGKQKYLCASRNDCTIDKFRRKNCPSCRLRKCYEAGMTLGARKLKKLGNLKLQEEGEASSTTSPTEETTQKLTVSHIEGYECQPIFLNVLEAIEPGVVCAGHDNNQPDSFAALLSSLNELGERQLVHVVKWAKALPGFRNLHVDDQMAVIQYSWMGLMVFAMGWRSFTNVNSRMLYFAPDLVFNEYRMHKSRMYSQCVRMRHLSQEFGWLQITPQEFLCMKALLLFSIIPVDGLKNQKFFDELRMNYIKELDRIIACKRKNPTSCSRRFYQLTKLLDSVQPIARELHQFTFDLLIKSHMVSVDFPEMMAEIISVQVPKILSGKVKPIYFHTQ
Protocol: The androgen transactivation potential of EC313 was studied in the CHO cell line expressing this steroid protein receptor. The cells were co-transfected with a vector encoding a human full-length androgen receptor (hAR) linked to the reporter vector MMTV/LUC. To produce high protein expression, transient transfections were carried out. […] Agonist and antagonist properties of EC313 toward tested receptor AR were analyzed using luminescence detection.
To prepare the transfection assay, plasmids were generated and isolated. Plasmid included vector coding sequences for the receptor as well as the reporter gene. Vector pcDNA3.1 coding sequence for the full length of human AR (AR cDNA ORF clone in pcDNA3.1+/C-(K)-DYK) was used as an expression vector for AR. Vector pGL4.36 coding for the androgen-responsive element (MMTV) linked to Firefly luciferase [luc2P/Hygro] was used as a reporter system (pGL4.36-MMTV/LUC).
Co-transfection was performed on a 96-well plate (16x10^3 cells per well) in culture medium (RPMI w/o phenol red, 10% FBS, L-Glu) w/o antibiotics using transfection reagents following the manufacturer’s instructions. Prior to transfection, plated cells were approximately 70%–80% confluent. After 24h of transfection, medium was removed to a culture medium and cells were treated for the next 24h with the test compounds.
After incubating the cells for 24h with the tested compounds, the luciferase activity was analyzed.

T1 sequence (Q92731 whole entry): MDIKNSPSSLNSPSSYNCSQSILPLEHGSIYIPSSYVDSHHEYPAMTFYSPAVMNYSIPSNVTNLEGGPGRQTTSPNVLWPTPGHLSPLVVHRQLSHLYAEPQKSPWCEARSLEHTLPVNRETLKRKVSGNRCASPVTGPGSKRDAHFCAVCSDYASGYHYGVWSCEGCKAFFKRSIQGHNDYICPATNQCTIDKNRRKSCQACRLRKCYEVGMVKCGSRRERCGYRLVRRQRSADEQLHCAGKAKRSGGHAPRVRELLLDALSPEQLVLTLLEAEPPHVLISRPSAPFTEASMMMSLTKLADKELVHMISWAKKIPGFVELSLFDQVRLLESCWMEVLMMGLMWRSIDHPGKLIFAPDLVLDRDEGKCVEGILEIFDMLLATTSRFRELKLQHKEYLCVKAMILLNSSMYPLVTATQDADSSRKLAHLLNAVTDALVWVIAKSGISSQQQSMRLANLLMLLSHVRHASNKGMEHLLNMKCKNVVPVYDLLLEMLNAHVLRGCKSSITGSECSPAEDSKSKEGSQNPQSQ

SMILES: C[C@]12C[C@H](c3ccc(-c4ccoc4)cc3)C3=C4CCC(=O)C=C4CC[C@H]3[C@@H]1CC[C@]21OCCC1=C(F)F [EC313]
- competition coefficient [1]: 3.4
- competitive displacement of [3H]-estradiol [2]: did not cause any competitive displacement
- fold higher concentration for the same androgenic effect vs Metribolone (human androgen receptor; AR agonism): 38 fold
- EC50 (human androgen receptor; AR, three experiments, read-out: EC50, agonistic activity): 280 nM
- antagonistic activity (human androgen receptor; AR, vs 13 nM Metribolone): No antagonistic activity
